{
  "source": "patent US5488033A",
  "about": "“Treatment to reduce edema” (The Regents of the University of California, priority 1994, dated 1996)",
  "key": {"[1]": {"system": "Freeze Injury to Brain (vascular permeability of brain)", "experiment": "Cold (freeze) injury to rat brain, vascular leakage by Monastral blue staining", "format": "in vivo", "description": "An in vivo model of injury to study brain edema has been developed as a reproducible edema model, which has the features of immediate cortical damage followed by the subsequent development of brain edema. This model is described by Chan et al., Brain Research, 277, pp. 329-337 (1983). The model uses rats which are anesthetized. A 2.5 cm incision is made over the sagittal suture and the bone of the right hemisphere exposed. A 60 mm^2 plate attached to a brass cup filled with dry ice-acetone mixture, with a temperature of -50° C., is applied to the rat skull for one minute. The animals are sacrificed at various intervals after the onset of cold-injury. A dye is administered intravenously before the freezing. Cortical slices are then obtained of the brain.\nSixteen male rats were randomly divided into eight pairs and one rat in each pair received either saline or CRF (subcutaneously twice at 30 μg/kg, 30 min and 10 min before cold injury). The animals were anesthetized with sodium pentobarbital, 60 mg/kg intraperitoneally, and injected with Monastral blue, 60 mg/kg intravenously. A cold probe was applied onto the skull for four minutes and the brains taken out one hour after cold injury. The staining of brain tissues with Monastral blue, a colloidal pigment that gets trapped between the albuminal surface of the endothelial cell and the basement membrane, was proportional to the degree of vascular leakage. The results from the first pair are shown as FIG. 1.\nThe size of the lesion, measured as area in mm^2, and the degree of staining intensity, were quantified using an image-analysis software program called JAVA (Jandel Corporation, San Rafael, Calif.). The stain intensity, given in arbitrary units, was internally calibrated using Monastral blue solutions (1-30 mg/ml) placed on white filter paper. Values are mean ± S.E.M."}, "[2]": {"system": "cerebral cortex and basal ganglia (brain edema)", "experiment": "Freeze injury of cerebral cortex, water and sodium content as index of brain edema", "format": "in vivo, rat", "details": "CRF 30 μg/kg s.c. 2×, ± S.E.M., N = 5", "procedure": "In a second set of experiments, the brain surface, namely the cerebral cortex, was injured by freezing and the water and sodium content were measured in the cerebral cortex and in the basal ganglia, a part of the brain away from the freeze zone. The water and sodium content of the brain tissue served as an index of brain edema. After freeze injury, the water and sodium content of the cerebral cortex were evaluated relative to non-frozen tissues. CRF administered in two separate doses of 30 μg/kg subcutaneously, one dose 15 minutes before the injury and the second dose 90 minutes after the first dose, inhibited the two indices of brain edema.\nMale SpragueDawley rats, 300-325 g, anesthetized with\nketamineacepromazine, were injected saline or CRF (30 μg/kg s.c.\n2×) and injury to cerebral cortex was produced by applying a cold\nprobe to the skull for 1 min. Brain tissues were obtained 3 hr later and\nanalyzed for water and sodium content."}, "[3]": {"system": "abdominal muscle wall (vascular leakage after celiotomy)", "experiment": "Vascular leakage after celiotomy (4 cm midline incision of abdominal muscle wall), Monastral blue", "format": "in vivo, rat", "details": "for Area / Intensity / Lesion Size: tissues 0.5 hour after surgery; for lesion size relative to that of the saline-treated group: celiotomy", "procedure": "Experiments were conducted on male Sprague-Dawley rats 243±15 gm (S.D., Simonsen Labs., Gilroy, Calif.) anesthetized with sodium pentobarbital, 60 mg/kg i.p. Monastral blue, 60 mg/kg i.v., was injected 0.2 ml/100 g, 3 minutes before a 4 cm midline incision through the abdominal muscle wall (celiotomy). Saline or CRF was administered to randomized pairs with N=8 rats per group. The size of the lesion, measured as area in mm^2, and its light intensity, were quantified using the JAVA image-analysis software program. The light intensity, given in arbitrary units, was internally calibrated using Monastral blue solutions (1-30 mg/ml) placed on white filter paper. Values are mean ± S.E.M. FIG. 2 illustrates the respective amount of vascular permeability for one pair of rats (control and treated). Tables III and IV set out data from these experiments.\nCRF: injected at various doses subcutaneously 30 minutes\nbefore a 4 cm midline incision, tissues taken 0.5 hour\nCRF: 30 μg/kg s.c. injected 2 hour before a 4 cm\nmidline incision, tissues taken 0.5 hour after surgery"}, "[4]": {"system": "vascular leakage produced by PAF-acether", "experiment": "Vascular leakage produced by PAF-acether injected subcutaneously into the abdomen", "format": "in vivo, rat", "procedure": "CRF: 30 μg/kg s.c. injected 30 minutes before subcutaneous\ninjection of PAF-acether (1 μg/0.1 ml/rat) into the abdomen;\nmuscle removed 0.5 hour later."}, "[5]": {"system": "neutropenic rats infected with Pseudomonas", "experiment": "Neutropenic rat model of sepsis (Pseudomonas infection), survival", "format": "in vivo", "details": "CRF 100 μg/kg i.v. twice a day for four days after onset of fever; day 11; 9/15; P<0.002 vs saline (100% mortality by day 8)", "description": "The neutropenic rat model of sepsis, designed to mimic the systemic inflammatory response syndrome in humans, is described by Collins et al. from The Journal of Infectious Diseases, 159:6 (June 1989) and The Journal of Clinical Investigation, 88:885 (September 1991). […] The animals die from overwhelming infection within 7 to 9 days of infection and examination of the tissues with histological and pathological techniques reveal the characteristic organic manifestations of the systemic inflammatory response syndrome, namely, organ edema and tissue necrosis.\nIn a typical experiment, 10 rats serving as controls received saline and 15 rats received CRF at a dose of 100 μg/kg intravenously, given twice a day for four days after the onset of fever. At the end of 8 days, all of the animals in the control group were dead (100% mortality). By contrast, 60% (9/15) of the CRF group were still alive at day 11 when the experiment was concluded. The difference between the saline and CRF treated groups were statistically significant (P<0.002)."}, "[6]": {"details": "CRF 30 μg/kg s.c. twice, 30 min and 10 min before cold injury, brains taken 1 hour after injury, mean ± S.E.M."}, "[7]": {"details": "injured cerebral cortex, tissue 3 hr after 1 min cold probe"}, "[8]": {"details": "non-injured basal ganglia, tissue 3 hr after injury"}, "[9]": {"details": "CRF 15 μg/kg s.c. 30 minutes before incision"}, "[10]": {"details": "CRF 30 μg/kg s.c. 30 minutes before incision"}, "[11]": {"details": "CRF 30 μg/kg s.c. 2 hour before incision"}, "[12]": {"details": "CRF 60 μg/kg s.c. 30 minutes before incision"}, "[13]": {"details": "CRF 30 μg/kg s.c. 30 minutes before PAF-acether 1 μg/0.1 ml/rat s.c., muscle removed 0.5 hour later"}},
  "note": "No end group written: not given here.",
  "data": [
    {"substance": "CRF: 41 amino acid neuropeptide, mammalian corticotropin-releasing factor; stimulates ACTH release from pituitary cells (SEEPPISLDLTFHLLREVLEMARAEQLAQQAHSNRKLMEII; not fully specified; ends and bridges not checked; UniProt P06850 154-194, looked up)", "values": [
      {"measurement": "Area", "setting": "[1]; [6]", "value": "20.8 ± 1.2", "unit": "mm^2"},
      {"measurement": "Intensity (staining intensity)", "setting": "[1]; [6]", "value": "2.0 ± 0.05", "unit": "arbitrary units"},
      {"measurement": "Lesion Size", "setting": "[1]; [6]", "value": "43 ± 3"},
      {"measurement": "lesion size relative to that of the saline-treated group", "setting": "[1]; brain cold injury, CRF 30 μg/kg s.c. twice", "value": 44, "unit": "%"},
      {"measurement": "correct assignment of brains to saline or CRF group by an observer unaware of pretreatment", "setting": "[1]; eight pairs of rats, more damaged vs less damaged brain", "value": "8 out of 8"},
      {"measurement": "SODIUM, cerebral cortex", "setting": "[2]; [7]", "value": "271 ± 8", "unit": "mEg/kg dry wt"},
      {"measurement": "WATER CONTENT, cerebral cortex", "setting": "[2]; [7]", "value": "77 ± 4", "unit": "%"},
      {"measurement": "SODIUM, basal ganglia", "setting": "[2]; [8]", "value": "215 ± 9", "unit": "mEg/kg dry wt"},
      {"measurement": "WATER CONTENT, basal ganglia", "setting": "[2]; [8]", "value": "76 ± 1", "unit": "%"},
      {"measurement": "Area", "setting": "[3]; [9]", "value": "505 ± 16", "unit": "mm^2"},
      {"measurement": "Intensity", "setting": "[3]; [9]", "value": "2.0 ± 0.03", "unit": "arbitrary units"},
      {"measurement": "Lesion Size", "setting": "[3]; [9]", "value": "1031 ± 44"},
      {"measurement": "Area", "setting": "[3]; [10]", "value": "361 ± 18", "unit": "mm^2"},
      {"measurement": "Intensity", "setting": "[3]; [10]", "value": "1.9 ± 0.05", "unit": "arbitrary units"},
      {"measurement": "Lesion Size", "setting": "[3]; [10]", "value": "676 ± 47"},
      {"measurement": "Area", "setting": "[3]; [11]", "value": "477 ± 31", "unit": "mm^2"},
      {"measurement": "Intensity", "setting": "[3]; [11]", "value": "1.9 ± 0.03", "unit": "arbitrary units"},
      {"measurement": "Lesion Size", "setting": "[3]; [11]", "value": "919 ± 51"},
      {"measurement": "Area", "setting": "[3]; [12]", "value": "257 ± 3", "unit": "mm^2"},
      {"measurement": "Intensity", "setting": "[3]; [12]", "value": "1.8 ± 0.05", "unit": "arbitrary units"},
      {"measurement": "Lesion Size", "setting": "[3]; [12]", "value": "468 ± 19"},
      {"measurement": "lesion size relative to that of the saline-treated group", "setting": "[3]; [9]", "value": 63, "unit": "%"},
      {"measurement": "lesion size relative to that of the saline-treated group", "setting": "[3]; [10]", "value": 42, "unit": "%"},
      {"measurement": "lesion size relative to that of the saline-treated group", "setting": "[3]; CRF 30 μg/kg s.c. 2 hours before injury", "value": 59, "unit": "%"},
      {"measurement": "lesion size relative to that of the saline-treated group", "setting": "[3]; [12]", "value": 29, "unit": "%"},
      {"measurement": "muscle lesion size relative to that of the saline-treated control group", "setting": "[4]; CRF 30 μg/kg s.c. 30 minutes before PAF-acether", "value": 44, "unit": "%"},
      {"measurement": "Area", "setting": "[4]; [13]", "value": "188 ± 16", "unit": "mm^2"},
      {"measurement": "Intensity", "setting": "[4]; [13]", "value": "1.4 ± 0.05"},
      {"measurement": "Lesion Size", "setting": "[4]; [13]", "value": "260 ± 26"},
      {"measurement": "animals still alive (survival)", "setting": "[5]", "value": 60, "unit": "%"}
    ]}
  ]
}
